Here are results for 17 molecules from patent publication US20260124214A1, “HETEROCYCLIC COMPOUNDS FOR USE IN THE TREATMENT OF CANCER” (ARTIOS PHARMA LIMITED, priority 2021, published 2026).

SMILES strings stand for the structures. Counter-ions that a name gives are not always drawn.

The target of the experiment is T1, Human Polθ polymerase domain (aa1820-2590) (Homo sapiens, UniProt O75417).
T1 construct: Human Polθ polymerase domain (aa1820-2590) was expressed in E. Coli; made in house; host or cells: E. coli
T1 sequence (O75417 1820-2590): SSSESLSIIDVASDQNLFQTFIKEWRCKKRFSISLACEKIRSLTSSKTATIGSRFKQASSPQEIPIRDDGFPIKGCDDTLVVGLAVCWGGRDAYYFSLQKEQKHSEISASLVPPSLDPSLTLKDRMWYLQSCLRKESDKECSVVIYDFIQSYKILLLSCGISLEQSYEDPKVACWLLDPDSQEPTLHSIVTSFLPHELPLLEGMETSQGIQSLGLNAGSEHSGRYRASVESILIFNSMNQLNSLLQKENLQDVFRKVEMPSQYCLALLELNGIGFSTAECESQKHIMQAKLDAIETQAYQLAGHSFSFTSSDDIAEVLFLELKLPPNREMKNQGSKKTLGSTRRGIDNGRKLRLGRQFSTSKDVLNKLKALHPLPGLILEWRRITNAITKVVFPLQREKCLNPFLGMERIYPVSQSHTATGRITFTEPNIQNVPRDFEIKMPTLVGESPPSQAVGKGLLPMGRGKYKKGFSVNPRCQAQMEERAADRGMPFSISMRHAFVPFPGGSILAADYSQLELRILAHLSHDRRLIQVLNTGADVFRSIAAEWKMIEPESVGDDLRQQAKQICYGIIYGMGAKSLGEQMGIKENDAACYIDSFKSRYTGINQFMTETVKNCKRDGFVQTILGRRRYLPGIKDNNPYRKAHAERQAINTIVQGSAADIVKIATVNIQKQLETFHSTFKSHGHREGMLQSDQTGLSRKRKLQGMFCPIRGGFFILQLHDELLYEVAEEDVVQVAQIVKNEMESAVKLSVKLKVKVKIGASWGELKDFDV
The experiment in a line: Polθ Polymerase Domain WT KI Assay (PicoGreen). Format: biochemical. The settings on record: 100 nM DNA substrate, 0.156 nM Polθ, initial rates vs inhibitor concentration. In outline:
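E. coli-expressed human Polθ polymerase domain (aa1820-2590) on annealed DNA II Short/Long primer-template (1.2:1), in 25 mM Tris pH 7.5, NaCl, 5% glycerol, 0.01% Triton X-100, 0.1 mg/ml BSA, 1 mM DTT, 1% DMSO. EDTA-quenched timepoints to 180 min, PicoGreen fluorescence. Initial rates vs inhibitor concentration fitted four-parameter for KI.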
A word on the Ki: it is a measure of affinity in units of concentration, obtained from inhibition or displacement. The low end stands for a stronger hold on the target, the high end for a looser hold on the target. `Cc1cc(C(F)(F)F)cc(N2C(=O)C[C@@H]3CN(CCN4CCN(CCO)CC4)c4c(C)cccc4N(C)C(=O)[C@H]32)n1` [Example 53, (3aR,11aS)-5-(2-(4-(2-Hydroxyethyl)piperazin-1-yl)ethyl)-6,10-dimethyl-1-(6-methyl-4-(trifluoromethyl)pyridin-2-yl)-1,3a,4,5,10,11a-hexahydro-2H-benzo[b]pyrrolo[2,3-f][1,4]diazocine-2,11(3H)-dione]: the inhibition constant Ki was found to be 1.23 nM. That is a single-digit nanomolar value. Then `Cc1cc(C(F)(F)F)cc(N2C(=O)C[C@@H]3CN(CCN(C)CCO)c4c(C)cccc4N(C)C(=O)[C@H]32)n1` [Example 54, (3aR,11aS)-5-(2-((2-Hydroxyethyl)(methyl)amino)ethyl)-6,10-dimethyl-1-(6-methyl-4-(trifluoromethyl)pyridin-2-yl)-1,3a,4,5,10,11a-hexahydro-2H-benzo[b]pyrrolo[2,3-f][1,4]diazocine-2,11(3H)-dione], with 5.56 nM; and `CC(=O)N1CCN(CCN2C[C@H]3CC(=O)N(c4cc(C(F)(F)F)cc(C)n4)[C@@H]3C(=O)N(C)c3cccc(C)c32)CC1` [Example 55, (3aR,11aS)-5-(2-(4-Acetylpiperazin-1-yl)ethyl)-6,10-dimethyl-1-(6-methyl-4-(trifluoromethyl)pyridin-2-yl)-1,3a,4,5,10,11a-hexahydro-2H-benzo[b]pyrrolo[2,3-f][1,4]diazocine-2,11(3H)-dione hydrochloride], with 0.891 nM. Next, `Cc1cc(C(F)(F)F)cc(N2C(=O)C[C@@H]3CN(CCN4CC[C@@H](O)C4)c4c(C)cccc4N(C)C(=O)[C@H]32)n1` [Example 56, (3aR,11aS)-5-(2-((R)-3-Hydroxypyrrolidin-1-yl)ethyl)-6,10-dimethyl-1-(6-methyl-4-(trifluoromethyl)pyridin-2-yl)-1,3a,4,5,10,11a-hexahydro-2H-benzo[b]pyrrolo[2,3-f][1,4]diazocine-2,11(3H)-dione]: 3.12 nM; `Cc1cc(C(F)(F)F)cc(N2C(=O)C[C@@H]3CN(CCN4CCN[C@@H](C)C4)c4c(C)cccc4N(C)C(=O)[C@H]32)n1` [Example 57, (3aR,11aS)-6,10-Dimethyl-1-(6-methyl-4-(trifluoromethyl)pyridin-2-yl)-5-(2-((S)-3-methylpiperazin-1-yl)ethyl)-1,3a,4,5,10,11a-hexahydro-2H-benzo[b]pyrrolo[2,3-f][1,4]diazocine-2,11(3H)-dione dihydrochloride]: 0.564 nM; `Cc1cc(C(F)(F)F)cc(N2C(=O)C[C@@H]3CN(CCN4C[C@H]5C[C@@H]4CN5)c4c(C)cccc4N(C)C(=O)[C@H]32)n1` [Example 58, (3aR,11aS)-5-(2-((1R,4R)-2,5-Diazabicyclo[2.2.1]heptan-2-yl)ethyl)-6,10-dimethyl-1-(6-methyl-4-(trifluoromethyl)pyridin-2-yl)-1,3a,4,5,10,11a-hexahydro-2H-benzo[b]pyrrolo[2,3-f][1,4]diazocine-2,11(3H)-dione dihydrochloride]: 0.777 nM.

The molecule `Cc1cc(C(F)(F)F)cc(N2C(=O)C[C@@H]3CN(CCN4C[C@@H]5C[C@H]4CN5)c4c(C)cccc4N(C)C(=O)[C@H]32)n1` [Example 59, (3aR,11aS)-5-(2-((1S,4S)-2,5-Diazabicyclo[2.2.1]heptan-2-yl)ethyl)-6,10-dimethyl-1-(6-methyl-4-(trifluoromethyl)pyridin-2-yl)-1,3a,4,5,10,11a-hexahydro-2H-benzo[b]pyrrolo[2,3-f][1,4]diazocine-2,11(3H)-dione dihydrochloride] came in with a Ki of 1.13 nM. Next, `Cc1cc(C(F)(F)F)cc(N2C(=O)C[C@@H]3CN(CCN4CC5CCC(C4)N5C)c4c(C)cccc4N(C)C(=O)[C@H]32)n1` [Example 60, (3aR,11aS)-6,10-Dimethyl-5-(2-(8-methyl-3,8-diazabicyclo[3.2.1]octan-3-yl)ethyl)-1-(6-methyl-4-(trifluoromethyl)pyridin-2-yl)-1,3a,4,5,10,11a-hexahydro-2H-benzo[b]pyrrolo[2,3-f][1,4]diazocine-2,11(3H)-dione dihydrochloride]: 0.625 nM; `Cc1cc(C(F)(F)F)cc(N2C(=O)C[C@@H]3CN(CCN4C[C@H]5C[C@@H]4CN5C)c4c(C)cccc4N(C)C(=O)[C@H]32)n1` [Example 61, (3aR,11aS)-6,10-Dimethyl-5-(2-((1R,4R)-5-methyl-2,5-diazabicyclo[2.2.1]heptan-2-yl)ethyl)-1-(6-methyl-4-(trifluoromethyl)pyridin-2-yl)-1,3a,4,5,10,11a-hexahydro-2H-benzo[b]pyrrolo[2,3-f][1,4]diazocine-2,11(3H)-dione dihydrochloride]: 0.759 nM; `Cc1cc(C(F)(F)F)cc(N2C(=O)C[C@@H]3CN(CCN4C[C@@H]5C[C@H]4CN5C)c4c(C)cccc4N(C)C(=O)[C@H]32)n1` [Example 62, (3aR,11aS)-6,10-Dimethyl-5-(2-((1S,4S)-5-methyl-2,5-diazabicyclo[2.2.1]heptan-2-yl)ethyl)-1-(6-methyl-4-(trifluoromethyl)pyridin-2-yl)-1,3a,4,5,10,11a-hexahydro-2H-benzo[b]pyrrolo[2,3-f][1,4]diazocine-2,11(3H)-dione dihydrochloride]: 1.01 nM. Next, `Cc1cc(C(F)(F)F)cc(N2C(=O)C[C@@H]3CN(CCN4CCN(C)[C@@H](CO)C4)c4c(C)cccc4N(C)C(=O)[C@H]32)n1` [Example 63, (3aR,11aS)-5-(2-((R)-3-(Hydroxymethyl)-4-methylpiperazin-1-yl)ethyl)-6,10-dimethyl-1-(6-methyl-4-(trifluoromethyl)pyridin-2-yl)-1,3a,4,5,10,11a-hexahydro-2H-benzo[b]pyrrolo[2,3-f][1,4]diazocine-2,11(3H)-dione]: 1.07 nM; `Cc1cc(C(F)(F)F)cc(N2C(=O)C[C@@H]3CN(CCN4CCN(C)C[C@H]4CO)c4c(C)cccc4N(C)C(=O)[C@H]32)n1` [Example 64, (3aR,11aS)-5-(2-((S)-2-(Hydroxymethyl)-4-methylpiperazin-1-yl)ethyl)-6,10-dimethyl-1-(6-methyl-4-(trifluoromethyl)pyridin-2-yl)-1,3a,4,5,10,11a-hexahydro-2H-benzo[b]pyrrolo[2,3-f][1,4]diazocine-2,11(3H)-dione dihydrochloride]: 0.816 nM; `Cc1cc(C(F)(F)F)cc(N2C(=O)C[C@@H]3CN(CCN4CCN(C)C[C@@H]4CO)c4c(C)cccc4N(C)C(=O)[C@H]32)n1` [Example 65, (3aR,11aS)-5-(2-((R)-2-(Hydroxymethyl)-4-methylpiperazin-1-yl)ethyl)-6,10-dimethyl-1-(6-methyl-4-(trifluoromethyl)pyridin-2-yl)-1,3a,4,5,10,11a-hexahydro-2H-benzo[b]pyrrolo[2,3-f][1,4]diazocine-2,11(3H)-dione dihydrochloride]: 1.38 nM. Then `Cc1cc(C(F)(F)F)cc(N2C(=O)C[C@@H]3CN(CCN4CC[C@H](N(C)C)[C@H](F)C4)c4c(C)cccc4N(C)C(=O)[C@H]32)n1` [Example 66, (3aR,11aS)-5-(2-((3R,4S)-4-(Dimethylamino)-3-fluoropiperidin-1-yl)ethyl)-6,10-dimethyl-1-(6-methyl-4-(trifluoromethyl)pyridin-2-yl)-1,3a,4,5,10,11a-hexahydro-2H-benzo[b]pyrrolo[2,3-f][1,4]diazocine-2,11(3H)-dione dihydrochloride], with 0.936 nM; and `Cc1cc(C(F)(F)F)cc(N2C(=O)C[C@@H]3CN(CCN4CCN(S(C)(=O)=O)CC4)c4c(C)cccc4N(C)C(=O)[C@H]32)n1` [Example 67, (3aR,11aS)-6,10-Dimethyl-1-(6-methyl-4-(trifluoromethyl)pyridin-2-yl)-5-(2-(4-(methylsulfonyl)piperazin-1-yl)ethyl)-1,3a,4,5,10,11a-hexahydro-2H-benzo[b]pyrrolo[2,3-f][1,4]diazocine-2,11(3H)-dione], with 0.598 nM; and `Cc1cc(C(F)(F)F)cc(N2C(=O)C[C@@H]3CN(CCN4CCS(=O)(=O)CC4)c4c(C)cccc4N(C)C(=O)[C@H]32)n1` [Example 68, (3aR,11aS)-5-(2-(1,1-Dioxidothiomorpholino)ethyl)-6,10-dimethyl-1-(6-methyl-4-(trifluoromethyl)pyridin-2-yl)-1,3a,4,5,10,11a-hexahydro-2H-benzo[b]pyrrolo[2,3-f][1,4]diazocine-2,11(3H)-dione], with 1.07 nM. The molecule `Cc1cc(C(F)(F)F)cc(N2C(=O)C[C@@H]3CN(CCN4CCC(C#N)CC4)c4c(C)cccc4N(C)C(=O)[C@H]32)n1` [Example 69, 1-(2-((3aR,11aS)-6,10-Dimethyl-1-(6-methyl-4-(trifluoromethyl)pyridin-2-yl)-2,11-dioxo-1,2,3,3a,4,10,11,11a-octahydro-5H-benzo[b]pyrrolo[2,3-f][1,4]diazocin-5-yl)ethyl)piperidine-4-carbonitrile] had an inhibition constant Ki of 1.12 nM. The Ki values of the last two molecules are within 1.5-fold of each other.
